The record followed here is patent publication US20030125234A1, “Alteration of protein stability” (priority 2001, published 2003).

Type in all cases: biochemical
The target of test [1] is T1, Bovine insulin (Bos taurus, UniProt P01317).
T1 construct: purchased Sigma, St. Louis, Mo., USA
The experiment in a line: Insulin aggregation (turbidity at 360 nm) induced by DTT. The settings on record: Insulin 0.25 mg/mL, 25° C., DTT; compound 100×; standard deviation in parenthesis. The gist of the method: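 Reductive aggregation of insulin was tracked as optical density at 360 nm over 1 hour at 25° C. Insulin at 0.25 mg/mL in pH 7.0 phosphate saline was stirred with the test compound in 1 cm thermostatted cuvettes, read every 30 seconds, or in 96-well plates. DTT […] was then added. Compound-free insulin served as the reference.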

The target of test [2] is T2, porcine heart citrate synthase (CS) (Sus scrofa, UniProt P00889).
T2 construct: porcine heart citrate synthase (CS); from tissue; host or cells: porcine heart
T2 sequence (P00889 28-464): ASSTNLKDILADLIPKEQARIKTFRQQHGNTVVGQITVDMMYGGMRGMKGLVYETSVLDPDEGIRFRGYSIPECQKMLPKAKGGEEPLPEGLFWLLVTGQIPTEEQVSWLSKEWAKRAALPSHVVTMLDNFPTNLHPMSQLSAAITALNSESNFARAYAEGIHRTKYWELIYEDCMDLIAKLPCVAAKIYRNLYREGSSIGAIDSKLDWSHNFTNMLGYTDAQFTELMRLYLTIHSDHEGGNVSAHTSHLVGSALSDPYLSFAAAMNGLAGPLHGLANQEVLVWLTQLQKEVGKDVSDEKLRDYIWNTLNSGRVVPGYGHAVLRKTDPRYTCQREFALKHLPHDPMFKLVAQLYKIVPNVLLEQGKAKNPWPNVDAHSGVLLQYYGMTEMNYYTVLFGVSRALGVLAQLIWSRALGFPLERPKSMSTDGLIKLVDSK
In words: Citrate synthase thermal aggregation (turbidity at 360 nm). The settings on record: for inhibition index: CS 96 μg/mL, 45° C., standard deviation in parenthesis. The gist of the method: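 Additive effects on thermal aggregation were read from the steepest slope of OD360-versus-time curves recorded over 1 h and referenced to additive-free protein. FGF-1 (50 μg/mL, phosphate/NaCl pH 7.2) was stressed at 50° C; citrate synthase (96 μg/mL, HEPES/KCl pH 7.8) at 45° C.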

The target in test [3] is T3, yeast alcohol dehydrogenase (ADH) (Saccharomyces cerevisiae, UniProt P00330).
T3 construct: purchased Sigma
T3 sequence (P00330 2-348 limits assumed): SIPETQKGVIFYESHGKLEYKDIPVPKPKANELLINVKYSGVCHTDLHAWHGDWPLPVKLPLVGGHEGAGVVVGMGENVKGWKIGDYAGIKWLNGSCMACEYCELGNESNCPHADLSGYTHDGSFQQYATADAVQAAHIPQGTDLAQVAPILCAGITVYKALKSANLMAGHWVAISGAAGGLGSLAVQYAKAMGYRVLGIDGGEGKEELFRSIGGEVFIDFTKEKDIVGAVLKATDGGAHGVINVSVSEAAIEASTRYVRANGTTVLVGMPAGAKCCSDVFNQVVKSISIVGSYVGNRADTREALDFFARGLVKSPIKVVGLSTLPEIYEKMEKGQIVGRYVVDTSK
In words: ADH oxidation-induced aggregation (turbidity at 360 nm), Cu(OP)2. The settings on record: ADH 1 mg/mL, 37° C., Cu(OP)2. The gist of the method: (§1)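 pST 1.27 mg/mL, 60° C, PEG 8000 20 mg/mL; lysozyme 0.4 mg/mL, 25° C, DTT 1.27E-4 M; HLF 0.4 mg/mL, 43° C, DTT 1.27E-4 M; ADH 1 mg/mL, PBS pH 7.0, 37° C, Cu(OP)2 7.76E-5 M. Turbidity at 360 nm over 1 h, vs no-compound control.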

Test [4] has as its target T4, human apolactoferrin (HLF) (Homo sapiens, UniProt P02788).
T4 construct: purchased Sigma
The experiment in a line: HLF aggregation (turbidity at 360 nm) induced by DTT. The settings on record: HLF 0.4 mg/mL, 43° C., DTT, head 10,000×, standard deviation in parenthesis. The gist of the method:
as §1

[5] abbreviates: compound 1,000X, standard deviation in parenthesis.
Where [6] appears, read: compound 10,000X molar excess, Infinite = complete inhibition of aggregation over one hour.

T1 sequence (P01317 25-54 limits assumed): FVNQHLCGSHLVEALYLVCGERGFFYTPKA
T1 sequence (P01317 85-105 limits assumed): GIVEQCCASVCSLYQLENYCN
T4 sequence (P02788 20-710): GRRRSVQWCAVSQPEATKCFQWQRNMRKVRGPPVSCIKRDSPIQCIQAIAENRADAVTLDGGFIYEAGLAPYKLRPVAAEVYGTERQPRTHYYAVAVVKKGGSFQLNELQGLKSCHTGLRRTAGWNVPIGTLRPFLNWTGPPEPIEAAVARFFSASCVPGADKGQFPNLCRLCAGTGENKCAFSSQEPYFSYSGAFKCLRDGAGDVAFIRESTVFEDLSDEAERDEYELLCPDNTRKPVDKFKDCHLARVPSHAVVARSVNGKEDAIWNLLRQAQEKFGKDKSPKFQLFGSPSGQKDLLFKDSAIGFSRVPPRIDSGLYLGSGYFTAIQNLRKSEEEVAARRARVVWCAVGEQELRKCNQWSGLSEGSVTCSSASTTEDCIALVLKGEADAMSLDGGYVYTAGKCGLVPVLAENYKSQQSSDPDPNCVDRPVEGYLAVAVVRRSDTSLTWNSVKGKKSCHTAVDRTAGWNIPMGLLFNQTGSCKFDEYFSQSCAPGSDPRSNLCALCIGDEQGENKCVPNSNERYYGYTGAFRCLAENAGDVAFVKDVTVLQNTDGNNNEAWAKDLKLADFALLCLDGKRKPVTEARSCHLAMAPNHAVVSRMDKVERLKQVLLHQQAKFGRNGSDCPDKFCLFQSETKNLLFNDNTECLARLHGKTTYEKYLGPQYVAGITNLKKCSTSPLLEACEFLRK

As for Lys-Lys, the inhibition index in test [1] is reported as 1.1 (0.1); in test [2] (compound 1,000X) it was 0.9 (0.1); in test [2] (compound 10,000X), 1.6 (0.3); in test [2] (compound 50,000X), 86.8; in test [3] (setting [5]), 1.4 (0.2); in test [3] (setting [6]), 2.7. For the same substance, the inhibition index in test [4] (first HLF column) is 13.5 (1.2); in test [4] (second HLF column), 11.2.
On to diglycine, for which the inhibition index in test [1] is recorded as 1.0 (0.2); in test [2] (compound 1,000X), 0.8 (0.1); in test [2] (compound 10,000X), 0.9 (0.3); in test [2] (compound 50,000X), 1.5 (0.2); in test [3] (setting [5]), 4.0 (0.9); in test [3] (setting [6]) it was 0.7 (0.1). Also, the inhibition index in test [4] (first HLF column) is 7.4 (1.0); in test [4] (second HLF column), 10.0. For the same substance, in test [2], the “inhibition of citrate synthase aggregation, in words” value was “Potent inhibitors”.
Consider pentaglycine, for which the inhibition index in test [1] is on record as 1.0 (0.2); in test [2] (compound 1,000X), 0.6 (0.2); in test [3] (setting [5]) it was 5.8 (3.1); in test [3] (setting [6]), “Infinite^4”; in test [4] (first HLF column), 979.0 (7.5); in test [4] (second HLF column) it was 0.5 (0.0).
As for tetraglycine, the inhibition index in test [1] is on record as 1.5 (0.3); in test [2] (compound 1,000X) it was 1.5 (0.1); in test [3] (setting [5]), 8.4 (2.7); in test [3] (setting [6]), 5313.1; in test [4] (first HLF column), 8.3 (9.5); in test [4] (second HLF column), 0.1.
